In brackets after ≈: the same amount, converted by molar mass. Activity calls are given as the source filed them. No cut-off for these calls is given here.
Tests used:
Hepatitis C virus [1] = assay: Antiviral activity against Hepatitis C virus genotype 1b by replicon assay; format: functional, organism-based, Hepacivirus hominis
Hepatitis C virus [2] = assay: Antiviral activity against Hepatitis C virus genotype 1a by replicon assay; format: functional, organism-based, Hepacivirus hominis; conditions: subtype 1a
[3] = Cmax in Sprague-Dawley rat at 5 mg/kg, po; format: ADME, organism-based; set-up: dose 5 mg/kg, route oral; conditions: in vivo
[4] = AUC in Sprague-Dawley rat at 5 mg/kg, po; format: ADME, organism-based; set-up: dose 5 mg/kg, route oral; conditions: plasma
[5] = Half life in Sprague-Dawley rat at 5 mg/kg, iv; format: ADME, organism-based; set-up: dose 5 mg/kg, route intravenous; conditions: in vivo
[6] = Half life in Sprague-Dawley rat at 5 mg/kg, po; format: ADME, organism-based; set-up: dose 5 mg/kg, route oral; conditions: in vivo
[7] = Clearance in Sprague-Dawley rat at 5 mg/kg, iv; format: ADME, organism-based; set-up: dose 5 mg/kg, route intravenous; conditions: in vivo
[8] = Oral bioavailability in Sprague-Dawley rat at 5 mg/kg; format: ADME, organism-based; conditions: in vivo
Hepatitis C virus [9] = assay: Antiviral activity against Hepatitis C virus genotype 1b infected in chimpanzee assessed as log reduction in viral load at 2.5 mg/kg, iv administered every 8 hrs measured after 32 hrs relative to control; format: functional, Hepacivirus hominis
Hepatitis C virus [10] = assay: Antiviral activity against Hepatitis C virus genotype 1b harboring NS5A Y93C/K26R double mutant infected in chimpanzee assessed as reduction in viral load at 2.5 mg/kg, iv administered every 8 hrs measured after 32 hrs; format: functional, organism-based; set-up: dose 2.5 mg/kg; conditions: Hepacivirus hominis
[11] = Solubility in aqueous buffer; format: physicochemical
Hepatitis C virus [12] = assay: Antiviral activity against Hepatitis C virus genotype 1b harboring NS5A L28M mutant infected in chimpanzee assessed as reduction in viral load at 2.5 mg/kg, iv administered every 8 hrs measured after 32 hrs; format: functional, organism-based; set-up: dose 2.5 mg/kg; conditions: Hepacivirus hominis
Hepatitis C virus [13] = assay: Antiviral activity against Hepatitis C virus genotype 1b by replicon assay in presence of human plasma; format: functional, organism-based, Hepacivirus hominis
Hepatitis C virus [14] = assay: Antiviral activity against Hepatitis C virus genotype 1b harboring NS5A K26R mutant infected in chimpanzee assessed as reduction in viral load at 2.5 mg/kg, iv administered every 8 hrs measured after 32 hrs; format: functional, organism-based; set-up: dose 2.5 mg/kg; conditions: Hepacivirus hominis
[15] = Half life in iv dosed chimpanzee; format: ADME, organism-based, Pan troglodytes; conditions: in vivo
Hepatitis C virus [16] = assay: Antiviral activity against Hepatitis C virus genotype 1b harboring NS5A Q24R/K26R double mutant infected in chimpanzee assessed as reduction in viral load at 2.5 mg/kg, iv administered every 8 hrs measured after 32 hrs; format: functional, organism-based; set-up: dose 2.5 mg/kg; conditions: Hepacivirus hominis
[17] = Clearance in dog at 2.5 mg/kg, iv; format: ADME, organism-based, Canis lupus familiaris; set-up: dose 2.5 mg/kg, route intravenous; conditions: in vivo
[18] = Oral bioavailability in dog at 2.5 mg/kg; conditions: in vivo
[19] = Half life in dog at 2.5 mg/kg, iv; format: ADME, organism-based, Canis lupus familiaris; set-up: dose 2.5 mg/kg, route intravenous; conditions: in vivo
[20] = Half life in dog at 2.5 mg/kg, po; conditions: in vivo
[21] = Cmax in dog at 2.5 mg/kg, po; conditions: in vivo
[22] = AUC in dog at 2.5 mg/kg, po; conditions: plasma

| EC50 (Hepatitis C virus [1]) [nM] | EC50 (Hepatitis C virus [2]) [nM] | SMILES | further results |
| --- | --- | --- | --- |
| 6250 | 7890 | C[C@H](NC(=O)c1ccc(Sc2ccc(N)cc2)c(Nc2ncnc3ncccc23)c1)c1ccccc1 |  |
| 130 | 150 | CC(C)c1ccc2c(Nc3cc(C(=O)NCc4ccccc4)ccc3Sc3ccc(N)cc3)ncnc2n1 |  |
| 52 | 89 | COc1ccc([C@H](C)NC(=O)c2ccc(Sc3ccc(N)cc3)c(Nc3ncnc4nc(C(C)C)ccc34)c2)cc1 |  |
| 20 | 370 | CC(C)c1ccc2c(Nc3cc(C(=O)N[C@@H](C)c4ccccc4C(F)(F)F)ccc3Sc3ccc(N)cc3)ncnc2n1 |  |
| 10 | 100 | Cc1cccc(C(C)NC(=O)c2ccc(Sc3ccc(N)cc3)c(Nc3ncnc4nc(C(C)C)ccc34)c2)c1 (configuration not stated) |  |
| 331 | 1170 | CC(C)c1ccc2c(Nc3cc(C(=O)NC(C)c4ccncc4)ccc3Sc3ccc(N)cc3)ncnc2n1 (configuration not stated) |  |
| 13 | 16 | CC(C)c1ccc2c(Nc3cc(C(=O)N[C@@H]4CCc5ccccc54)ccc3Sc3ccc(N)cc3)ncnc2n1 |  |
| 159 | 378 | CC(C)c1ccc2c(Nc3cc(C(=O)NC(C)c4cccs4)ccc3Sc3ccc(N)cc3)ncnc2n1 (configuration not stated) |  |
| 164 | 919 | CC(C)c1ccc2c(Nc3cc(C(=O)NC(C)c4ccccn4)ccc3Sc3ccc(N)cc3)ncnc2n1 (configuration not stated) |  |
| 4 | 24 | COc1cccc([C@H](C)NC(=O)c2ccc(Sc3ccc(N)cc3)c(Nc3ncnc4nc(C(C)C)ccc34)c2)c1 |  |
| 181 | 284 | CC(C)c1ccc2c(Nc3cc(C(=O)NC(C)(C)c4ccccc4)ccc3Sc3ccc(N)cc3)ncnc2n1 |  |
| 51 | 349 | CC(C)c1ccc2c(Nc3cc(C(=O)N[C@@H](C)c4ccccc4)ccc3Sc3ccc(NS(C)(=O)=O)cc3)ncnc2n1 |  |
| 28 | 169 | CC(C)c1ccc2c(Nc3cc(C(=O)N[C@@H](C)c4ccccc4Br)ccc3Sc3ccc(N)cc3)ncnc2n1 |  |
| 120 | 690 | CC(C)c1ccc2c(Nc3cc(C(=O)N[C@@H](C)c4ccccc4)ccc3Sc3ccc(O)cc3)ncnc2n1 |  |
| 2 | 10 | CC(C)c1ccc2c(Nc3cc(C(=O)N[C@@H](C)c4ccc(F)cc4)ccc3Sc3ccc(N)cc3)ncnc2n1 |  |
| 700 | 1070 | CC(C)c1ccc2c(Nc3cc(C(=O)NC4(c5ccccc5)CC4)ccc3Sc3ccc(N)cc3)ncnc2n1 |  |
| 20 | 280 | CC(C)c1ccc2c(Nc3cc(C(=O)NC(C)c4ccccc4F)ccc3Sc3ccc(N)cc3)ncnc2n1 (configuration not stated) |  |
| 9 | 33 | CC(C)c1ccc2c(Nc3cc(C(=O)NC(C)c4cccc(Br)c4)ccc3Sc3ccc(N)cc3)ncnc2n1 (configuration not stated) |  |
| 314 | 4570 | CC(C)c1ccc2c(Nc3cc(C(=O)N[C@@H](CO)c4ccccc4)ccc3Sc3ccc(N)cc3)ncnc2n1 |  |
| 30 | 340 | CC(C)c1ccc2c(Nc3cc(C(=O)N[C@@H](C)c4ccc5ccccc5c4)ccc3Sc3ccc(N)cc3)ncnc2n1 |  |
| 30 | 300 | Cc1ccccc1C(C)NC(=O)c1ccc(Sc2ccc(N)cc2)c(Nc2ncnc3nc(C(C)C)ccc23)c1 (configuration not stated) |  |
| 4 | 16 | CC(C)c1ccc2c(Nc3cc(C(=O)N[C@@H](C)c4ccc(Br)cc4)ccc3Sc3ccc(N)cc3)ncnc2n1 | Cmax [3]: 330 ng/mL; AUC [4]: 3840 ng·h/mL; half-life [5]: 1.9 h; half-life [6]: 2 h; clearance [7]: 5.67 mL/min/kg; bioavailability [8]: 24.9% |
| 250 | 200 | C[C@H](NC(=O)c1ccc(Sc2ccc(N)cc2)c(Nc2ncnc3nc(C(F)(F)F)ccc23)c1)c1ccccc1 |  |
| 149 | 5030 | CC(=O)Nc1ccc(Sc2ccc(C(=O)N[C@@H](C)c3ccccc3)cc2Nc2ncnc3nc(C(C)C)ccc23)cc1 |  |

Continued, compound first:

| SMILES | EC50 (Hepatitis C virus [1]) [nM] | EC50 (Hepatitis C virus [2]) [nM] | further results |
| --- | --- | --- | --- |
| CC(C)c1ccc2c(Nc3cc(C(=O)N[C@@H](C)c4cccc(C(F)(F)F)c4)ccc3Sc3ccc(N)cc3)ncnc2n1 | 21 | 210 |  |
| CC[C@H](NC(=O)c1ccc(Sc2ccc(N)cc2)c(Nc2ncnc3nc(C(C)C)ccc23)c1)c1ccccc1 | 33 | 35 |  |
| CC(C)c1ccc2c(Nc3cc(C(=O)N[C@@H](C)C4CCCCC4)ccc3Sc3ccc(N)cc3)ncnc2n1 | 45 | 240 | Cmax [3]: 200 ng/mL; AUC [4]: 250 ng·h/mL; half-life [5]: 0.5 h; half-life [6]: 0.8 h; clearance [7]: 21.5 mL/min/kg; bioavailability [8]: 5% |
| CC(C)c1ccc2c(Nc3cc(C(=O)N[C@](C)(CO)c4ccccc4)ccc3Sc3ccc(N)cc3)ncnc2n1 | 60 | 1200 |  |
| Cc1ccc2c(Nc3cc(C(=O)N[C@@H](C)c4ccccc4)ccc3Sc3ccc(N)cc3)ncnc2n1 | 600 | 1200 |  |
| COc1ccccc1C(C)NC(=O)c1ccc(Sc2ccc(N)cc2)c(Nc2ncnc3nc(C(C)C)ccc23)c1 (configuration not stated) | 40 | 610 |  |
| CC(C)c1ccc2c(Nc3cc(C(=O)N[C@@](C)(CO)c4ccccc4)ccc3Sc3ccc(N)cc3)ncnc2n1 | 2 | 188 | FC (Hepatitis C virus [9]): 1.65; Activity (Hepatitis C virus [10]): inactive; Cmax [3]: 320 ng/mL; AUC [4]: 900 ng·h/mL; solubility [11]: 19.7 µM (≈ 11.1 µg/mL); Activity (Hepatitis C virus [12]): inactive; EC50 (Hepatitis C virus [13]): 34 nM; half-life [5]: 1.1 h; Activity (Hepatitis C virus [14]): inactive; half-life [6]: 2.7 h; clearance [7]: 12.5 mL/min/kg; bioavailability [8]: 13.3%; half-life [15]: 4.1 h; Activity (Hepatitis C virus [16]): inactive |
| CC(C)c1ccc2c(Nc3cc(C(=O)N[C@H]4CCc5ccccc54)ccc3Sc3ccc(N)cc3)ncnc2n1 | 54 | 451 |  |
| CC(C)c1ccc2c(Nc3cc(C(=O)N[C@H](C)c4ccccc4)ccc3Sc3ccc(N)cc3)ncnc2n1 | 100 | 180 |  |
| COC(=O)Nc1ccc(Sc2ccc(C(=O)N[C@@H](C)c3ccccc3)cc2Nc2ncnc3nc(C(C)C)ccc23)cc1 | 4 | 42 | half-life [5]: 0.4 h; clearance [7]: 12.8 mL/min/kg; bioavailability [8]: 0% |
| CC(C)c1ccc2c(Nc3cc(C(=O)NC(C)c4cccc(F)c4)ccc3Sc3ccc(N)cc3)ncnc2n1 (configuration not stated) | 15 | 92 |  |
| CC(C)c1ccc2c(Nc3cc(C(=O)N[C@@H](C)c4ccccc4)ccc3Oc3ccc(N)cc3)ncnc2n1 | 790 | 2310 |  |
| CC(C)c1ccc2c(Nc3cc(C(=O)NC(C)c4cccnc4)ccc3Sc3ccc(N)cc3)ncnc2n1 (configuration not stated) | 377 | 1420 |  |
| CC(C)c1ccc2c(Nc3cc(C(=O)N[C@@H](C)c4ccccc4)ccc3Sc3ccc(N)cc3)ncnc2n1 | 7 | 45 | Cmax [3]: 1480 ng/mL; clearance [17]: 4.33 mL/min/kg; AUC [4]: 6490 ng·h/mL; solubility [11]: 5 µM (≈ 2.67 µg/mL); EC50 (Hepatitis C virus [13]): 1200 nM; half-life [5]: 1.6 h; half-life [6]: 2.7 h; bioavailability [18]: 18.8%; half-life [19]: 3.2 h; clearance [7]: 5.5 mL/min/kg; bioavailability [8]: 42.4%; half-life [20]: 3 h; Cmax [21]: 490 ng/mL; AUC [22]: 2350 ng·h/mL |
| CC(C)c1ccc2c(Nc3cc(C(=O)N[C@H](CCO)c4ccccc4)ccc3Sc3ccc(N)cc3)ncnc2n1 | 347 | 3270 |  |
| CC[C@@H](NC(=O)c1ccc(Sc2ccc(N)cc2)c(Nc2ncnc3nc(C(C)C)ccc23)c1)c1ccccc1 | 127 | 266 |  |
| CC(C)c1ccc2c(Nc3cc(C(=O)N[C@H](CO)c4ccccc4)ccc3Sc3ccc(N)cc3)ncnc2n1 | 237 | 3030 |  |
| CC(C)c1ccc2c(Nc3cc(C(=O)NC(C)c4ccc(C(F)(F)F)cc4)ccc3Sc3ccc(N)cc3)ncnc2n1 (configuration not stated) | 41 | 66 |  |
| CC(C)c1ccc2c(Nc3cc(C(=O)N[C@@H](CCO)c4ccccc4)ccc3Sc3ccc(N)cc3)ncnc2n1 | 242 | 1470 |  |
| Cc1ccc([C@H](C)NC(=O)c2ccc(Sc3ccc(N)cc3)c(Nc3ncnc4nc(C(C)C)ccc34)c2)cc1 | 5 | 22 | Cmax [3]: 160 ng/mL; AUC [4]: 600 ng·h/mL; half-life [5]: 0.7 h; half-life [6]: 2.6 h; clearance [7]: 18.3 mL/min/kg; bioavailability [8]: 12.2% |
| CC(C)c1ccc2c(Nc3cc(C(=O)N[C@H](c4ccccc4)C(F)(F)F)ccc3Sc3ccc(N)cc3)ncnc2n1 | 2 | 13 | Cmax [3]: 930 ng/mL; AUC [4]: 3890 ng·h/mL; half-life [5]: 2.9 h; half-life [6]: 1.8 h; clearance [7]: 4 mL/min/kg; bioavailability [8]: 18.7% |
| C[C@H](NC(=O)c1ccc(Sc2ccc(N)cc2)c(Nc2ncnc3nc(C(C)(C)C)ccc23)c1)c1ccccc1 | 3 | 46 |  |
